From patent US20250161338A1, “Compounds for Anti-aging Intervention” (AGENCY FOR SCIENCE, TECHNOLOGY AND RESEARCH, priority 2022, published 2025)
Structures can show the parent of a compound that is named as a salt.

Columns and labels:
[1] = tested on: prototrophic yeast strain (CEN.PK113-7D); test: Propidium iodide fluorescence-based CLS method in yeast (incl. high-throughput screening); type: cell-based, Saccharomyces cerevisiae; details: concentration tested 100 μM; for Yeast CLS increase: Yes/No call of the screen; for PI intensity: solvent DMSO or water, chronological age point Day 7 (72 h growth = Day 1), lower = more survival;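 as to PI intensity: untreated reference is eight DMSO and water control wells per plate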
Procedure: Yeast strain was recovered from frozen glycerol stock at 30° C. on YPD agar medium. Yeast was left to propagate in SD medium overnight at 30° C. with shaking at 220 revolutions per minute (rpm). Cells propagated overnight were diluted to a starting optical density at 600 nm (OD600) of approximately 0.2 in fresh SD medium to begin the chronological lifespan (CLS) experiments.
(§1) CLS experiments were performed in 96-well plates with 200 μL yeast culture. Cellular inoculums were transferred into 96-well plates containing serially double-diluted concentrations (0 to 10 nM) of rapamycin. Cellular inoculum was transferred into 96-well plates containing serially double-diluted concentrations (0 to 8 mM) of 2,5-anhydro-D-mannitol, D-fructose, D-mannitol, D-maltose, and D-sorbitol in SD medium. Cells were incubated at 30° C., and the growth was measured at different time points. […] Cell survival was quantified at various age time points by three different approaches: (i) PI fluorescence-based method, (ii) outgrowth in YPD liquid medium, and (iii) spotting assay (FIG. 1).
Yeast cells (40 μL) from different age time points were transferred into a second 96-well plate (different to the 96-well plate in which the CLS analysis as outlined above was performed). Cells were washed and incubated in 100 μL 1×phosphate buffered saline (PBS) with propidium iodide (PI) (5 μg/mL) for 15 minutes in the dark. Positive and negative control samples were included for quantitative analysis. Positive control (cells boiled at 100° C. for 15 minutes) was PI-stained and processed in the same 96-well plate. Samples without PI-stained cells served as the negative control. After incubation, cells were washed and resuspended in 100 μL PBS. The fluorescence reading of the samples (excitation and emission wavelengths at 535 nm and 617 nm, respectively) and OD600 were measured with a microplate reader (BioTek, Winooski, Vermont, United States). The fluorescence intensity of each sample was normalized with OD600. The background fluorescence signal of the unstained negative sample was subtracted from the normalized fluorescence intensity of each sample. The obtained fluorescence intensity of the positive control (boiled dead cells) was considered 0% cell survival. Cell death was validated by allowing the boiled dead cells to grow in medium. Cell survival at different age time points of samples were calculated by normalizing the fluorescence intensity with positive control sample (boiled cells).
High-throughput screening of various chemicals was tested using the same protocol for the propidium iodide fluorescence-based method as described above. The prototrophic yeast strain (CEN.PK113-7D) was grown in the synthetic defined medium with different chemical reagents at their respective single testing concentration (Table 1) in addition to eight replicates of DMSO and water controls in 96-well plates at 30° C.

[2] = tested on: prototrophic yeast strain (CEN.PK113-7D); test: Yeast outgrowth in YPD liquid medium (CLS of aged cells); type: cell-based, Saccharomyces cerevisiae; details: concentration tested 100 μM; OD600 nm after 24 h in YPD at 30° C.; age point day 14
Procedure: as §1
Outgrowth (OD600) of aged cells was measured by the microplate reader. Quantification of cell survival for each age point was determined as relative to Day 1 (considered 100% cell survival). This quantification was performed by using the formula,
[formula] • where OutgrowthDay n refers to the OD600 nm absorbance reading recorded on a specific day, OutgrowthDay 1 refers to the OD600 nm absorbance reading recorded on the first day where 100% cell survival is assumed.
The CLS of the aged cells was further determined by the yeast outgrowth in YPD liquid medium method as described above. […] At chronological age point day 14, 3-μL of culture were transferred to a second 96-well plate containing 200 μL YPD medium.

Compound | Yeast CLS increase [1] | PI intensity [1] | Outgrowth [2]
CC(C(=O)O)c1ccccc1 (stereo not shown) [2-Phenylpropionic acid] | No | 66,998.4 | 0.1
N[C@H](C(=O)O)[C@@H]1CC(Cl)=NO1 [Acivicin] | Yes | 41,066.2 | 1.0
COc1ccc(CC(=O)O)cc1OC [3,4-Dimethoxyphenylacetic acid] | No | 70,394.7 | 0.1
C[S+](C)CCC(N)C(=O)O.[Cl-] (racemic) [DL-Methionine methylsulfonium (chloride)] | No | 66,281.7 | 0.1
O=C(/C=C/c1ccc(O)c(O)c1)O[C@H]1[C@H](O)C[C@](O)(C(=O)O)C[C@H]1O [Cryptochlorogenic acid] | No | 65,040.0 | 0.1
Amarogentin | No | 70,083.5 | 0.1
CO[C@H]1C[C@@H]2CC[C@@H](C)[C@@](O)(O2)C(=O)C(=O)N2CCCC[C@H]2C(=O)O[C@H]([C@H](C)C[C@@H]2CC[C@@H](O)[C@H](OC)C2)CC(=O)[C@H](C)/C=C(\C)[C@@H](O)[C@@H](OC)C(=O)[C@H](C)C[C@H](C)/C=C/C=C/C=C/1C [Rapamycin, reference compound] | – | 21,460.5 | 1.3
OCC1=C[C@@H](O)[C@@H]2C=CO[C@@H](O[C@@H]3O[C@H](CO)[C@@H](O)[C@H](O)[C@H]3O)[C@H]12 [Aucubin] | No | 58,414.0 | 0.1
C[C@]12CCC(=O)C=C1C=C[C@@H]1[C@@H]2CC[C@@]2(C)[C@H]1CC[C@@]21CCC(=O)O1 [Canrenone, reference compound] | No | 64,295.2 | 0.1
CN(C)c1nc2c(ncn2[C@@H]2O[C@H](CO)[C@@H](O)[C@H]2O)c(=O)[nH]1 [N2,N2-Dimethylguanosine] | No | 65,619.9 | 0.1
Streptomycin (sulfate) [reference compound] | No | 60,638.5 | 0.1
CC[C@H]1CN2CC[C@]3(C(=O)Nc4ccccc43)[C@@H]2C[C@@H]1/C(=C\OC)C(=O)OC [Rhynchophylline] | No | 55,562.5 | 0.1
Escin | No | 70,495.1 | 0.1
O=C1N[C@@H]2C(=C[C@H](O)[C@@H](O)[C@H]2O)c2cc3c(c(O)c21)OCO3 [Narciclasine] | No | 67,161.8 | 0.1
CC1OC(OC2C(=O)c3c(O)cc(O)cc3OC2c2ccc(O)cc2)C(O)C(O)C1O (stereo not shown) [Engeletin] | Yes | 37,144.4 | 0.9
CC[C@@]1(O)C(=O)OCc2c1cc1n(c2=O)Cc2cc3c([N+](=O)[O-])cccc3nc2-1 [Rubitecan] | No | 57,075.3 | 0.1
COc1cc2c(cc1OC)-c1cc3ccc4c(c3c[n+]1CC2)OCO4.[Cl-] [Epiberberine (chloride)] | Yes | 38,027.2 | 1.3
CC1(C)CC[C@]2(C(=O)O)CC[C@]3(C)C(=CC[C@@H]4[C@@]5(C)CC[C@H](O)[C@@](C)(CO)[C@@H]5CC[C@]43C)[C@@H]2C1 [Hederagenin] | No | 73,281.0 | 0.1
NC(=O)[C@@H]1CC[C@@H]2CN1C(=O)N2OS(=O)(=O)O [Avibactam (sodium), reference compound] | No | 73,562.3 | 0.1

Compound | Yeast CLS increase [1] | PI intensity [1] | Outgrowth [2]
CC(C)(O)CCc1c(O)cc(O)c2c(=O)c(O)c(-c3ccc(O)cc3)oc12 [Noricaritin] | No | 77,179.8 | 0.1
CCCCCCCCCCCCCCC(=O)O [Pentadecanoic acid] | No | 75,173.9 | 0.1
Cc1nc(C)c(C)nc1C [Tetramethylpyrazine] | No | 62,003.6 | 0.1
O=c1ccn([C@@H]2O[C@H](CO)[C@@H](O)[C@H]2O)c(=O)[nH]1 [Uridine] | No | 84,894.9 | 0.1
C[C@H](Cn1cnc2c(N)ncnc21)OCP(=O)(O)O.O [Tenofovir (hydrate), reference compound] | No | 76,065.0 | 0.1
NC[C@H](CC(=O)O)c1ccc(Cl)cc1 [(R)-Baclofen, reference compound] | No | 61,049.3 | 0.1
C=C1C(=O)O[C@@H]2C[C@@]3(C)CCCC(=C)[C@@H]3C[C@H]12 [Isoalantolactone] | No | 94,566.8 | 0.1
O=C[C@H](O)[C@H](O)[C@H](O)CO (single isomer, unassigned) [D-Ribose(mixture of isomers)] | No | 60,023.1 | 0.1
Estrone sulfate (potassium) | No | 54,751.8 | 0.1
O=C(O)C(O)Cc1ccccc1 (racemic) [DL-3-Phenyllactic acid] | No | 65,266.9 | 0.1
C=C[C@@H]1C2=CCOC(=O)C2=CO[C@H]1O[C@@H]1O[C@H](CO)[C@@H](O)[C@H](O)[C@H]1O [Gentiopicroside] | No | 59,804.7 | 0.1
O=C(O)C=Cc1ccccc1 [Cinnamic acid] | No | 60,256.3 | 0.1
Melanin | Yes | 39,360.1 | 1.0
C=C[C@H]1C[N@@]2CC[C@H]1C[C@H]2[C@H](O)c1ccnc2ccc(OC)cc12 [Quinine (hydrochloride dihydrate), reference compound] | No | – | 0.1
Cn1cc(C(N)=O)ccc1=O [Nudifloramide] | No | 65,023.3 | 0.1
Cl.Cl.[O-][S+]1c2ccccc2N=C(N2CCN(CCOCCO)CC2)c2ccccc21 (stereo not shown) [Quetiapine sulfoxide (dihydrochloride)] | No | 68,761.6 | 0.1
CC[C@H]1CN2CCc3cc(OC)c(OC)cc3[C@@H]2C[C@@H]1C[C@H]1NCCc2cc(OC)c(OC)cc21 [Emetine (dihydrochloride hydrate), reference compound] | No | 75,341.5 | 0.1
O=C[C@H](O)[C@@H](O)[C@H](O)[C@H](O)C(=O)O [D-Glucuronic acid] | No | 48,839.6 | 0.1
COCc1c(C(C)C)nc(C(C)C)c(/C=C/[C@@H](O)C[C@@H](O)CC(=O)[O-])c1-c1ccc(F)cc1.[Na+] [Cerivastatin (sodium), reference compound] | No | 64,250.5 | 0.1
